Experiment in all cases: NCI-60 cell line screen, 48 h
The test system of experiment [1] is KM12 colon.
In experiment [2] the test system is HL-60(TB) leukemia.
Experiment [3] deals with EKVX NSCLC.
In experiment [4] the test system is 786-0 renal.
The test system of experiment [5] is NCI-H522 lung.
In experiment [6] the test system is PC-3 prostate.
Experiment [7] relates to NCI-H226 lung.
The subject of experiment [8] is SN12C renal.
Experiment [9] relates to M14 melanoma.
Experiment [10] has as its system OVCAR-5 ovarian.

Where “and” joins values, the source holds several entries; their conditions need not be identical. Equal values may be shown once.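 How tested: cells in 96-well plates exposed to compound for 48 hours at five concentrations. GI50: concentration for 50% inhibition of growth. TGI denotes the concentration required for complete inhibition of growth.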

As for `O=c1/c(=C\c2ccc(F)cc2)sc2n1C(c1ccc(F)cc1)C1=C(N=2)c2ccc3ccccc3c2OCC1` (configuration not stated), the GI50 was over 89.8 µM in [1]; over 100 µM in [2]; over 100 µM in experiment [3]; over 100 µM in experiment [4]; over 100000 nM in [5]; over 52.8 µM in experiment [6]. In addition, the GI50 in [7], in [8], in [9] and in experiment [10] was over 100 µM in each case. Moreover, the TGI in experiment [1], in [2], in experiment [3], in experiment [4], in experiment [5] and in experiment [6] was over 100 µM each time. The TGI in [7], in experiment [8], in experiment [9] and in experiment [10] was over 100 µM in each case.
As to `CC(C)=CCC(OC(=O)C=C(C)C)C1=CC(=O)c2c(O)ccc(O)c2C1=O` (configuration not stated), the GI50 in experiment [1] was 6.61 µM; in experiment [3], 2.28 µM; in experiment [4] it was 2.59 µM; in experiment [5], 414 nM and 104 nM; in experiment [6] it was 1.55 µM; in [7], 1.99 µM. Further, the GI50 in experiment [8] is 1.9 µM; in [9], 3.51 µM; in experiment [10], 5.77 µM. For the same compound, the TGI in experiment [1] is 23.9 µM and 6.52 µM; in experiment [2], 1.09 µM and 0.79 µM; in experiment [3] it was 6.2 µM and 2.2 µM; in experiment [4] it was 6.86 µM; in [5] it was 1.84 µM and 0.231 µM; in experiment [6], 8.74 µM. Besides, the TGI in experiment [7] was 4.02 µM and 6.72 µM; in [8], 3.94 µM and 2.92 µM; in [9] it was 9.57 µM; in experiment [10], 25.6 µM and 8.83 µM.
Consider `O=C1CC(c2[nH]nc3ccccc23)C(=O)N1c1ccccc1` (configuration not stated), for which the TGI in [1] is over 100 µM; in [2], 70.4 µM; in [3], over 100 µM; in experiment [4], over 100 µM; in experiment [5] it was over 100 µM; in experiment [6], over 100 µM. Besides, the TGI in experiment [7], in experiment [8], in [9] and in experiment [10] was over 100 µM throughout.
Regarding `S=c1nc(N/N=C/c2ccco2)c2cn[nH]c2[nH]1`, the GI50 in [1] is 24.7 µM; in experiment [2], 77.1 µM; in experiment [3], 51 µM; in experiment [4], over 100 µM; in experiment [5] it was 40500 nM; in [6] it was 57.5 µM. Also, the GI50 is over 100 µM in experiment [7], 83.7 µM in experiment [8], over 100 µM in experiment [9] and over 100 µM in [10]. Further, the TGI in experiment [1], in experiment [2], in experiment [3], in [4], in experiment [5] and in experiment [6] was over 100 µM in each case. Moreover, the TGI in [7], in [8], in experiment [9] and in [10] was over 100 µM in each case.
Consider `Cc1c2cc(Cl)c3ccccc3c2c[n+]2ccccc12`, for which the GI50 was 1.95 µM in [1]; 19.2 µM in experiment [2]; 2.46 µM in [3]; 4.11 µM in experiment [4]; 2130 nM in [5]; 2.81 µM in experiment [6]. Further, the GI50 in experiment [7] was 1.8 µM; in experiment [8], 0.388 µM; in experiment [9], 3.62 µM; in experiment [10] it was 29.7 µM. For the same compound, the TGI is 9.31 µM in experiment [1]; 55.3 µM in experiment [2]; over 100 µM in experiment [3]; 33 µM in experiment [4]; 12.4 µM in experiment [5]; 20.1 µM in experiment [6]. Besides, the TGI was 14.2 µM in experiment [7], 3.52 µM in [8], 15.5 µM in experiment [9] and over 100 µM in experiment [10].
As for `COC(=O)COc1ccc(/C=C2/N=C(c3ccccc3)N(c3c(C)n(C)n(-c4ccccc4)c3=O)C2=O)cc1`, the GI50 is 26.6 µM in experiment [1]; 26.2 µM in experiment [2]; 37.8 µM in experiment [3]; 19.7 µM in experiment [4]; 17800 nM in experiment [5]; 19.6 µM in [6]. Besides, the GI50 in experiment [7] was 25.3 µM; in [8], 22.5 µM; in experiment [9], 32.5 µM; in [10] it was 62.4 µM. In addition, the TGI in experiment [1] is 84.2 µM; in experiment [2], 67.2 µM; in experiment [3], over 100 µM; in experiment [4], 37 µM; in [5], 41 µM; in [6], 37.9 µM. Besides, the TGI was 63.5 µM in [7], 49 µM in experiment [8], over 100 µM in experiment [9] and over 100 µM in [10].
For the compound `c1ccc2c(-c3nc(-c4c[nH]c5ccncc45)cs3)c[nH]c2c1`, the GI50 was 2.02 µM in [1]; 2.02 µM in experiment [2]; 1.78 µM in experiment [3]; 1.89 µM in experiment [4]; 1920 nM in [5]; 1.84 µM in experiment [6]. In addition, the GI50 in [7] was 3.24 µM; in [8], 1.67 µM; in [9], 1.7 µM; in experiment [10] it was 2.59 µM. In addition, the TGI in experiment [1] was found to be 4.4 µM; in experiment [2], 4.73 µM; in [3] it was 4.61 µM; in experiment [4], 3.44 µM; in experiment [5], 3.92 µM; in experiment [6], 6.25 µM. Further, the TGI in experiment [7] came to 17.7 µM; in experiment [8] it was 3.35 µM; in experiment [9] it was 3.46 µM; in [10], 6.63 µM.
As to `CC(C)(C)OC(=O)NCCCn1c2c(c3ccccc3c1=O)C(=O)c1ccccc1-2`, the GI50 in [1] is 67 µM; in experiment [2] it was over 100 µM; in [3], 38.9 µM; in experiment [4], 15.1 µM; in [5], 42400 nM; in experiment [6], 51.5 µM. Further, the GI50 in experiment [7] was 63.5 µM; in [8], 24.8 µM; in experiment [9], over 100 µM. Also, the TGI in experiment [1] was over 100 µM; in experiment [2], over 100 µM; in experiment [3], over 100 µM; in experiment [4], 41.6 µM; in experiment [5], over 100 µM; in experiment [6] it was over 100 µM. Besides, the TGI in experiment [7], in experiment [8] and in experiment [9] was over 100 µM in each case.

These data come from PubChem BioAssay (NCI).
